# How the values were obtained:
# [1] = test system: human umbilical vein endothelial cells; experiment: Tubular structure formation test on Matrigel; type: cell-based; details: 25 mM D-glucose
# Text: The human umbilical vein endothelial cells will migrate, arrange and form a tubular network structure without additional growth factors and the participation of other kinds of cells, thus the wound-healing efficiency is affected by the maintenance of the tubular structure of the cells as time goes on. Therefore, the ability to enhance cell migration and facilitate the angiogenesis of the sustained-release composition of the present disclosure is confirmed by the tubular structure formation test of the human umbilical vein endothelial cells. The specific experimental method is described below. First, 200 μL of the growth factor-reduced matrix Matrigel is added to each well of a 24-well plate respectively and then placed into the 37° C. incubator. After the growth factor-reduced matrix Matrigel is heated and become colloid, 2.5×10^4 of the human umbilical vein endothelial cells are seeded in each well of the aforementioned 24-well plate and then 200 μL of the medium (containing 25 mM D-glucose) is added to the wells respectively. […] Next, the tubular structure of each experimental group is observed via an inverted microscope at the time points of 6 hours, 12 hours, 24 hours and 48 hours, and the branching point number of each experimental group is calculated.
# [2] = test system: p38 protein; experiment: Signaling molecule activation test, p38 phosphorylation by ELISA; type: cell-based, human; details: HUVEC
# Description: (§1) In the aforementioned description, the exogenous hydrogen sulfide can activate the signaling molecules related to the proliferation and the migration of the endothelial cells, such as ERK1/2 protein and p38 protein, so that the angiogenesis of the cells is enhanced. Thus, the ability to activate the signaling molecule of the sustained-release composition of the present disclosure is further estimated in this experiment. First, the human umbilical vein endothelial cells are seeded in a 6-well plate in a density of 10^5 cells per well. After incubating for 24 hours, the 1% FBS mediums containing the formula of the experimental group 1 or the experimental group 3 (all of them contain 25 mM D-glucose) respectively is added to each well of a 6-wells-plate. Finally, the cells are collected at specific time points and the phosphorylation level of p38 protein and ERK1/2 are quantified by the enzyme-linked immunosorbent assay (ELISA).
# [3] = test system: ERK1/2 protein; experiment: Signaling molecule activation test, ERK1/2 phosphorylation by ELISA; type: cell-based, human; details: HUVEC
# Description: as §1
# [4] = test system: db/db mouse; experiment: In vivo wound healing test, full-thickness back skin wounds; details: after treating for 18 days, dressing replaced every 48 hours
# Text: According to the aforementioned results, the sustained-release composition of the present disclosure does have the ability to enhance the cell migration, the cell proliferation and the angiogenesis, and the ability to facilitate the wound healing of the sustained-release composition of the present disclosure is further confirmed by the following in vivo wound healing test. The animal model established method and the animal experiment procedures of the in vivo wound healing test in this experiment are complied with the “Laboratory Animal Care and Use Guide” published by the Council of Agriculture, Taiwan. The diabetic animal model used in this experiment is an 8-week-old BKS.Cg-Lepr^db/Lepr^db/JNarl mouse (also known as db/db mouse).
# In the in vivo wound healing test, four symmetrically distributed rounded full-thickness wounds are created on the back skin of each mouse by the tissue sampler after the mice are anesthetized, wherein the diameter of each wound is 0.5 centimeter and the volume of each wound is 50 μL. The four wounds are applied with different treatments respectively and the dressing is replaced every 48 hours. […] The area changes of each wound at different time points are further analyzed by the image analysis software.
compound,measurement,setting,value
"S [experimental group 1, sodium hydrosulfide]",tubular structure,[1]; after incubating for 6 hours,can be observed
same,tubular structure disappeared rate,[1]; up to 48 hours,reduced
same,phosphorylation level of the p38 protein,[2]; after 24 hours and 48 hours,decreased
same,phosphorylation level of the p38 protein,[2]; first hour,significantly increased
same,phosphorylation level of the ERK1/2 protein,[3]; after 24 hours and 48 hours,decreased
same,phosphorylation level of the ERK1/2 protein,[3]; first hour,significantly increased
same,appearance of the wound,[4],unobvious

# Source: patent publication US10322088B2, “Sustained-release composition, method for fabricating, and use thereof” (NATIONAL TSING HUA UNIVERSITY, priority 2017, dated 2019)
